Results on 2 compounds are retold here after publication PMC8222276 (Communications Biology, 2021).

Type in all cases: cell-based
The target of assay [1] is T1, CGRP receptor (CLR-RAMP1) in RAMP1-HUVECs (Homo sapiens, UniProt O60894+Q16602).
T1 construct: biased agonism at the endogenous CLR in a physiological system; the open reading frame of RAMP1 into our HUVEC∆RAMP2 cell line; host or cells: HUVEC-∆RAMP2 (CRISPR-Cas9 RAMP2 knockout pool), lentiviral transduction, blasticidin selection
Briefly: mobilisation of Ca2+i in RAMP1-HUVECs. The protocol:
(§1) Data are analysed using a three-parameter non-linear regression curve or the operational model of receptor agonism. g–h Signalling bias plots were calculated as ∆Log(τ/KA) (g) or ∆∆Log(τ/KA) (h) for each agonist and for each signalling pathway. […] All data represent mean ± SEM for n repeats.
All cell lines were plated at 20,000 cells/well on 96-well black clear-bottom plates (Costar, UK) 24 h before the experiment. […] Cells were then washed twice with calcium-free HBSS, then were left in 100 μl calcium-free HBSS for the duration of the assay. […] Data was normalised to the response seen with 10 μM Ionomycin.
All sample sizes were determined, and data analysed, in accordance with the guidelines described by Curtis M et al.[65]. All experiments were appropriately controlled using ‘system pathway’ agonists. If any of these pathway controls generated inappropriate responses, then the entire data set was removed from analysis. […] Data analysis for cAMP accumulation, Ca^2+i mobilisation, NO accumulation, pERK1/2 activation, and cell proliferation assays were performed in GraphPad Prism 8.4 (GraphPad Software, San Diego). Data were fitted to obtain concentration–response curves using either the three-parameter logistic equation using to obtain values of Emax and pEC50 or the operational model of agonism. Statistical differences were analysed using one-way ANOVA followed by Dunnett’s post-hoc (for comparisons amongst more than two groups) or unpaired Student’s t test with Welch’s correction (for comparison between two groups).

The target of assay [2] is T1, CGRP receptor (CLR-RAMP1) in RAMP1-HUVECs. The experiment in a line: ERK1/2 phosphorylation in RAMP1-HUVECs. The protocol: as §1
(§2) Primary cells were grown in 6 well plates, on the day of the experiment media was replaced with serum free media 4 h prior to cell harvesting. Tyrpsin-EDTA was used to dissociate the cells and they were collected by centrifugation, counted and re-suspended HBSS/BSA (0.1%). Ligands were also diluted in HBSS/BSA. Cells were then plated on 384 well plates in 8 μl aliquots at a density of 20,000 cells/well. Next, ligands were added (4 μl) for 5 min stimulation at room temperature. Cells were then lysed as per to the manufacturer’s instructions with 4 μl of lysis buffer (Cisbio phosphor-ERK1/2 cellular assay kit, Invitrogen, UK) for 30 min shaking at room temperature. The 2 specific antibodies; were pre-mixed in a 1:1 ratio. 4 μl of this was added to each well and the plate incubated for a further 2 h.
All sample sizes were determined, and data analysed, in accordance with the guidelines described by Curtis M et al.[65]. All experiments were appropriately controlled using ‘system pathway’ agonists. If any of these pathway controls generated inappropriate responses, then the entire data set was removed from analysis.

Assay [3] addresses T2, CGRP receptor (CLR-RAMP1) in human cardiomyocytes (HCMs) (Homo sapiens, UniProt O60894+Q16602).
T2 construct: primary human cardiomyocytes (HCMs) since these cells only expressed CLR and RAMP1; host or cells: primary human cardiomyocytes (HCMs)
The experiment in a line: mobilisation of Ca2+i in HCMs. The protocol:
(§3) Data are analysed using a three-parameter non-linear regression curve or the operational model of receptor agonism. g, h Signalling bias plots were calculated as ∆Log(τ/KA) (g) or ∆∆Log(τ/KA) (h) for each agonist and for each signalling pathway. […] All data represent mean ± SEM for n repeats.
All cell lines were plated at 20,000 cells/well on 96-well black clear-bottom plates (Costar, UK) 24 h before the experiment. […] Cells were then washed twice with calcium-free HBSS, then were left in 100 μl calcium-free HBSS for the duration of the assay. In conditions where Gαq/11/14 signalling is inhibited, cells were pre-treated with 100 nM YM-254890 (Alpha Laboratories, UK) (30 min)[22]. All assays were performed using the BD Pathway 855 Bioimaging Systems (BD Biosciences, UK), which dispenses ligands (20 μl) and reads immediately for 2 min. Data was normalised to the response seen with 10 μM Ionomycin.
(§4) All sample sizes were determined, and data analysed, in accordance with the guidelines described by Curtis M et al.[65]. All experiments were appropriately controlled using ‘system pathway’ agonists. If any of these pathway controls generated inappropriate responses, then the entire data set was removed from analysis. […] Data analysis for cAMP accumulation, Ca^2+i mobilisation, NO accumulation, pERK1/2 activation, and cell proliferation assays were performed in GraphPad Prism 8.4 (GraphPad Software, San Diego). Data were fitted to obtain concentration–response curves using either the three-parameter logistic equation using to obtain values of Emax and pEC50 or the operational model of agonism. Statistical differences were analysed using one-way ANOVA followed by Dunnett’s post-hoc (for comparisons amongst more than two groups) or unpaired Student’s t test with Welch’s correction (for comparison between two groups). To account for the day-to-day variation experienced from the cultured cells, we used the maximal level of cAMP accumulation from cells in response to 100 μM forskolin stimulation was used as a reference, 10 μM ionomycin for Ca^2+i assays, 10 μM phorbol 12-myristate 13-acetate (PMA) for pERK1/2 activation, 10 μM acetylcholine for NO production and 10 μM VEGF for cell proliferation. […] Where appropriate the operational model for receptor agonism[27] was used to obtain efficacy (τ) and equilibrium disassociation constant (KA) values. In both cases, this normalisation removes the variation due to differences in days but retains the variance for control values. The means of individual experiments were combined to generate the curves shown. Having obtained values for τ and KA these were then used to quantify signalling bias as the change in Log(τ/KA)[19],[28]. Error for this composite measure was propagated by applying Eq. 1.1 PooledSEM=(SEMA)^2+(SEMB)^2 Where, SEMA and SEMB are the standard error of measurement A and B.

For assay [4], the target named is T2, CGRP receptor (CLR-RAMP1) in human cardiomyocytes (HCMs). The experiment in a line: ERK1/2 phosphorylation in HCMs. On the procedure: as §3, §2, §4
The mark [5] stands for this setting: Ca2+i, RAMP1-HUVEC, operational model, mean ± SEM.
The mark [6] stands for this setting: pERK1/2, RAMP1-HUVEC, operational model, mean ± SEM.
The mark [7] stands for this setting: Ca2+i, HCM, operational model, mean ± SEM.
Setting [8] is: pERK1/2, HCM, operational model, mean ± SEM.

The term Emax denotes the size of the effect at its maximum, as opposed to the concentration needed.

T1 sequence (Q16602 23-461): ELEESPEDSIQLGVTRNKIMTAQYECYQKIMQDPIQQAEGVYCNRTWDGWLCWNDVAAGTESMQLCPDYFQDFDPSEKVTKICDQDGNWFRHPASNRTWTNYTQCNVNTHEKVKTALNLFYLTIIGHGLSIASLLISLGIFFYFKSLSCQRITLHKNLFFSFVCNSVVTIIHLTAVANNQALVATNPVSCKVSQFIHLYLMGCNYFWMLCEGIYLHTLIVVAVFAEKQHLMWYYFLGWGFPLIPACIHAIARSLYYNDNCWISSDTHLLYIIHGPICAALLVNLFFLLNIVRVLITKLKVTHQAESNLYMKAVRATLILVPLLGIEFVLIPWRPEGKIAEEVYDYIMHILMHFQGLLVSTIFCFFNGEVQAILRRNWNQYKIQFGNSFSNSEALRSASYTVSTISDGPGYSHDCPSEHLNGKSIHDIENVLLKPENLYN
T1 sequence (O60894 27-148): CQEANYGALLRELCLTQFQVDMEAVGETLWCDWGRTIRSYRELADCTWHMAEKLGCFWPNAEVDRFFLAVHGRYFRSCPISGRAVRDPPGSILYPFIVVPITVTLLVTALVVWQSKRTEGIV
T2 sequence (Q16602 23-461): as the sequence (Q16602 23-461) above
T2 sequence (O60894 27-148): as the sequence (O60894 27-148) above

With `CSCC[C@H](NC(=O)[C@H](CC(C)C)NC(=O)[C@H](CCC(N)=O)NC(=O)[C@H](Cc1c[nH]c2ccccc12)NC(=O)[C@H](CC(C)C)NC(=O)[C@H](CCCNC(=N)N)NC(=O)[C@H](Cc1c[nH]cn1)NC(=O)[C@H](CO)NC(=O)[C@H](CC(C)C)NC(=O)[C@H](CC(N)=O)NC(=O)[C@H](CCC(N)=O)NC(=O)[C@@H](NC(=O)[C@H](CCC(N)=O)NC(=O)[C@@H]1CSSC[C@H](NC(=O)CNC(=O)[C@@H](NC(=O)[C@H](CCCNC(=N)N)NC(=O)[C@H](CC(C)C)NC(=O)[C@H](CC(C)C)NC(=O)[C@H](CCC(N)=O)NC(=O)[C@H](C)NC(=O)[C@H](CCC(N)=O)NC(=O)[C@@H](N)[C@@H](C)O)C(C)C)C(=O)N[C@@H](C(C)C)C(=O)N[C@@H](CC(C)C)C(=O)NCC(=O)N[C@@H]([C@@H](C)O)C(=O)N1)C(C)C)C(=O)NCC(=O)N1CCC[C@H]1C(=O)N[C@@H](C)C(=O)NCC(=O)N[C@@H](CCCNC(=N)N)C(=O)N[C@@H](CCC(N)=O)C(=O)N[C@@H](CC(=O)O)C(=O)N[C@@H](CO)C(=O)N[C@@H](C)C(=O)N1CCC[C@H]1C(=O)N[C@H](C(=O)N[C@@H](CC(=O)O)C(=O)N1CCC[C@H]1C(=O)N[C@@H](CO)C(=O)N[C@@H](CO)C(=O)N1CCC[C@H]1C(=O)N[C@@H](Cc1c[nH]cn1)C(=O)N[C@@H](CO)C(=O)N[C@@H](Cc1ccc(O)cc1)C(N)=O)C(C)C` [AM2, adrenomedullin 2], the maximal effect (Emax) amounted to 41 ± 2.26% in assay [1], 45.4 ± 2.89% in assay [2], 36.5 ± 2.31% in assay [3] and 40.4 ± 4.17% in assay [4]. Besides, the “Transducer coefficient Log(τ/KA)” value in assay [1] (Ca2+i, RAMP1-HUVEC, calculated from Table S2) is listed as 5.46±0.19; in assay [2] (pERK1/2, RAMP1-HUVEC, calculated from Table S2), 6.50±0.15; in assay [3] (Ca2+i, HCM, calculated from Table S2), 7.61±0.35; in assay [4] (pERK1/2, HCM, calculated from Table S2), 5.32±0.20. Further, the logτ is reported as -0.18±0.06 in assay [1] (setting [5]), -0.06±0.05 in assay [2] (setting [6]), -0.30±0.05 in assay [3] (setting [7]) and -0.20±0.08 in assay [4] (setting [8]). Also, the pKA in assay [1] (setting [5]) is 5.64±0.18; in assay [2] (setting [6]), 6.56±0.14; in assay [3] (setting [7]) it was 7.91±0.35; in assay [4] (setting [8]) it was 5.52±0.18.
In the case of `CC[C@H](C)[C@H](NC(=O)[C@H](CCC(N)=O)NC(=O)[C@H](Cc1c[nH]cn1)NC(=O)[C@H](C)NC(=O)[C@H](CC(C)C)NC(=O)[C@H](CCCCN)NC(=O)[C@H](CCC(N)=O)NC(=O)[C@@H](NC(=O)[C@@H](NC(=O)[C@@H]1CSSC[C@H](NC(=O)CNC(=O)[C@H](Cc2ccccc2)NC(=O)[C@H](CO)NC(=O)[C@H](CCCNC(=N)N)NC(=O)[C@H](CC(C)C)NC(=O)CNC(=O)[C@H](CCC(N)=O)NC(=O)[C@H](Cc2ccccc2)NC(=O)[C@H](CC(N)=O)NC(=O)[C@H](CC(N)=O)NC(=O)[C@H](CCSC)NC(=O)[C@H](CO)NC(=O)[C@H](CCC(N)=O)NC(=O)[C@H](CCCNC(=N)N)NC(=O)[C@@H](N)Cc2ccc(O)cc2)C(=O)N[C@@H](CCCNC(=N)N)C(=O)N[C@@H](Cc2ccccc2)C(=O)NCC(=O)N[C@@H]([C@@H](C)O)C(=O)N1)[C@@H](C)O)C(C)C)C(=O)N[C@@H](Cc1ccc(O)cc1)C(=O)N[C@@H](CCC(N)=O)C(=O)N[C@@H](Cc1ccccc1)C(=O)N[C@H](C(=O)N[C@@H](CC(=O)O)C(=O)N[C@@H](CCCCN)C(=O)N[C@@H](CC(=O)O)C(=O)N[C@@H](CCCCN)C(=O)N[C@@H](CC(=O)O)C(=O)N[C@@H](CC(N)=O)C(=O)N[C@H](C(=O)N[C@@H](C)C(=O)N1CCC[C@H]1C(=O)N[C@@H](CCCNC(=N)N)C(=O)N[C@@H](CO)C(=O)N[C@@H](CCCCN)C(=O)N[C@H](C(=O)N[C@@H](CO)C(=O)N1CCC[C@H]1C(=O)N[C@@H](CCC(N)=O)C(=O)NCC(=O)N[C@@H](Cc1ccc(O)cc1)C(N)=O)[C@@H](C)CC)C(C)C)[C@@H](C)O` [AM, adrenomedullin], the maximum response (Emax) in assay [1] (Ca2+i, RAMP1-HUVEC, relative to 10 μM ionomycin, mean ± SEM, read-out: Emax) amounted to 44.1 ± 1.42%; in assay [2] (pERK1/2, RAMP1-HUVEC, 5 min, relative to 10 μM PMA, mean ± SEM, read-out: Emax), 47.6 ± 1.48%; in assay [3] (Ca2+i, HCM, relative to 10 μM ionomycin, mean ± SEM, read-out: Emax), 58.12 ± 0.15%; in assay [4] (pERK1/2, HCM, 5 min, relative to 10 μM PMA, mean ± SEM, read-out: Emax), 40.1 ± 2.02%.
